{"source": "paper PMC9486951", "about": "“Tetramate Derivatives by Chemoselective Dieckmann Ring Closure of threo-Phenylserines and Their Antibacterial Activity” (The Journal of Organic Chemistry, 2022)", "key": {"[1]": {"tested_on": "methicillin-resistant Staphylococcus aureus (MRSA)", "test": "MIC determination by broth dilution assay against MRSA", "format": "cell-based", "procedure": "(§1) With access to these derivatives routinely available, an assessment of their antibacterial activity was made by measuring minimum inhibitory concentration (MIC) values (Table S6) against two example organisms, methicillin-resistant Staphylococcus aureus (MRSA) and E. coli. […] By contrast, a more polar substituent at the C7-position (pyran 12t) compromised the antibacterial activity (125 μg/mL). […] Compound 13b had the same activity as 12g at 1.00 μg/mL. Overall, increasing lipophilicity corresponded to higher potency against MRSA. […]\n(§2) Screening of compounds were performed by Oxford Antibiotic Group, Austria. For MIC determination by broth dilution assay, the samples were tested in a primary 96 well plates screening assay, in duplicate. The compounds were diluted in Mueller Hinton Broth (MHB) for bacterial screening to a stock solution of 1000 µg/mL, serial diluted and overlaid with a microbe solution in a concentration of 10^4 CFU/ml. […]"}, "E. coli": {"tested_on": "E. coli", "test": "MIC determination by broth dilution assay against E. coli", "format": "cell-based", "procedure": "as §1, §2"}, "[2]": {"settings": "Staphylococcus aureus, MRSA, Table S5, against S. aureus, read-out: MIC"}, "[3]": {"settings": "Staphylococcus aureus, MRSA, broth dilution, read-out: MIC against MRSA"}}, "note": "Like-named read-outs stand apart in the source and are kept apart here.", "data": [{"smiles": "CC(C)(C)[C@@H]1O[C@H](c2ccccc2)[C@H]2C(O)=C(C(=O)Nc3ccc(C(F)(F)F)cc3Cl)C(=O)N21", "note": "(racemic) [12i]", "values": [{"measurement": "antibacterial activity against MRSA (in words)", "setting": "[1]", "result": "high activities"}, {"measurement": "MIC", "setting": "[1]; [2]", "result": 0.49, "unit": "µg/mL"}, {"measurement": "MIC", "setting": "[1]; Table S6", "result": 0.49, "unit": "µg/mL"}]}, {"smiles": "CC(C)(C)[C@@H]1O[C@H](c2ccccc2)[C@H]2C(O)=C(C(=O)Nc3ccc(Cl)cc3C(F)(F)F)C(=O)N21", "note": "(racemic) [12j]", "values": [{"measurement": "MIC", "setting": "[1]; [2]", "result": 3.9, "unit": "µg/mL"}, {"measurement": "MIC", "setting": "[1]; Table S6", "result": 3.9, "unit": "µg/mL"}]}, {"smiles": "Cc1ccc(NC(=O)C2=C(O)[C@@H]3[C@@H](c4ccccc4)O[C@@H](C(C)(C)C)N3C2=O)c(C)c1", "note": "(racemic) [12k]", "values": [{"measurement": "MIC", "setting": "[1]; [2]", "result": 3.9, "unit": "µg/mL"}, {"measurement": "MIC", "setting": "[1]; Table S6", "result": 3.9, "unit": "µg/mL"}]}, {"smiles": "Cc1cc(F)ccc1NC(=O)C1=C(O)[C@@H]2[C@@H](c3ccccc3)O[C@@H](C(C)(C)C)N2C1=O", "note": "(racemic) [12l]", "values": [{"measurement": "antibacterial activity against MRSA (in words)", "setting": "[1]", "result": "high activities"}, {"measurement": "MIC", "setting": "[1]; [2]", "result": 1, "unit": "µg/mL"}, {"measurement": "MIC", "setting": "[1]; Table S6", "result": 1.0, "unit": "µg/mL"}]}, {"smiles": "CCCCCCc1ccc(NC(=O)C2=C(O)[C@@H]3[C@@H](c4ccccc4)O[C@@H](C(C)(C)C)N3C2=O)cc1", "note": "(racemic) [12m]", "values": [{"measurement": "MIC", "setting": "[1]; [2]", "result": 0.49, "unit": "µg/mL"}, {"measurement": "MIC", "setting": "[1]; [3]", "result": 0.49, "unit": "µg/mL"}, {"measurement": "MIC", "setting": "[1]; Table S6", "result": 0.49, "unit": "µg/mL"}]}, {"smiles": "CC(C)(C)[C@@H]1O[C@H](c2ccccc2)[C@H]2C(O)=C(C(=O)NC3CCCCC3)C(=O)N21", "note": "(racemic) [12n]", "values": [{"measurement": "MIC", "setting": "[1]; [2]", "result": 1, "unit": "µg/mL"}, {"measurement": "MIC", "setting": "[1]; [3]", "result": 1, "unit": "µg/mL"}, {"measurement": "MIC", "setting": "[1]; Table S6", "result": 1.0, "unit": "µg/mL"}]}, {"smiles": "CC(C)(C)[C@@H]1O[C@H](c2ccccc2)[C@H]2C(O)=C(C(=O)NC3CCCCCC3)C(=O)N21", "note": "(racemic) [12o]", "values": [{"measurement": "MIC", "setting": "[1]; [2]", "result": 1, "unit": "µg/mL"}, {"measurement": "MIC", "setting": "[1]; [3]", "result": 1, "unit": "µg/mL"}, {"measurement": "MIC", "setting": "[1]; Table S6", "result": 1.0, "unit": "µg/mL"}]}, {"smiles": "CCCCCCNC(=O)C1=C(O)[C@@H]2[C@@H](c3ccccc3)O[C@@H](C(C)(C)C)N2C1=O", "note": "(racemic) [12p]", "values": [{"measurement": "MIC", "setting": "[1]; [2]", "result": 3.9, "unit": "µg/mL"}, {"measurement": "MIC", "setting": "[1]; [3]", "result": 3.9, "unit": "µg/mL"}, {"measurement": "MIC", "setting": "[1]; Table S6", "result": 3.9, "unit": "µg/mL"}]}, {"smiles": "CCCCCCCCCNC(=O)C1=C(O)[C@@H]2[C@@H](c3ccccc3)O[C@@H](C(C)(C)C)N2C1=O", "note": "(racemic) [12q]", "values": [{"measurement": "MIC", "setting": "[1]; [2]", "result": 0.49, "unit": "µg/mL"}, {"measurement": "MIC", "setting": "[1]; [3]", "result": 0.49, "unit": "µg/mL"}, {"measurement": "MIC", "setting": "[1]; Table S6", "result": 0.49, "unit": "µg/mL"}]}, {"smiles": "CCCCCCCCCCCCNC(=O)C1=C(O)[C@@H]2[C@@H](c3ccccc3)O[C@@H](C(C)(C)C)N2C1=O", "note": "(racemic) [12r]", "values": [{"measurement": "MIC", "setting": "[1]; [2]", "result": 0.49, "unit": "µg/mL"}, {"measurement": "MIC", "setting": "[1]; [3]", "result": 0.49, "unit": "µg/mL"}, {"measurement": "MIC", "setting": "[1]; Table S6", "result": 0.49, "unit": "µg/mL"}]}, {"smiles": "CC(C)(C)[C@@H]1O[C@H](c2ccccc2)[C@H]2C(O)=C(C(=O)Nc3ccc(C4CCCCC4)cc3)C(=O)N21", "note": "(racemic) [12s]", "values": [{"measurement": "MIC", "setting": "[1]; [2]", "result": 1, "unit": "µg/mL"}, {"measurement": "MIC", "setting": "[1]; [3]", "result": 1, "unit": "µg/mL"}, {"measurement": "MIC", "setting": "[1]; Table S6", "result": 1.0, "unit": "µg/mL"}]}, {"smiles": "CC(C)(C)[C@@H]1O[C@H](c2ccccc2)[C@H]2C(O)=C(C(=O)NC3CCOCC3)C(=O)N21", "note": "(racemic) [12t]", "values": [{"measurement": "MIC", "setting": "[1]; [2]", "result": 125, "unit": "µg/mL"}, {"measurement": "MIC", "setting": "[1]; [3]", "result": 125, "unit": "µg/mL"}, {"measurement": "MIC", "setting": "[1]; Table S6", "result": 125, "unit": "µg/mL"}]}, {"smiles": "CC(C)(C)[C@@H]1O[C@H](c2ccccc2)[C@H]2C(O)=C(C(=O)NCc3ccccc3)C(=O)N21", "note": "(racemic) [12u]", "values": [{"measurement": "MIC", "setting": "[1]; [2]", "result": 15.6, "unit": "µg/mL"}, {"measurement": "MIC", "setting": "[1]; [3]", "result": 15.6, "unit": "µg/mL"}, {"measurement": "MIC", "setting": "[1]; Table S6", "result": 15.6, "unit": "µg/mL"}]}, {"smiles": "CC(C)(C)NC(=O)C1=C(O)[C@@H]2[C@@H](c3ccccc3)O[C@@H](C(C)(C)C)N2C1=O", "note": "(racemic) [12v]", "values": [{"measurement": "antibacterial activity against MRSA (in words)", "setting": "[1]", "result": "comparable activity with the hexyl 12p"}, {"measurement": "MIC", "setting": "[1]; [2]", "result": 3.9, "unit": "µg/mL"}, {"measurement": "MIC", "setting": "[1]; Table S6", "result": 3.9, "unit": "µg/mL"}]}, {"smiles": "Cc1ccc([C@H]2O[C@@H](C(C)(C)C)N3C(=O)C(C(=O)Nc4ccc(Cl)cc4C)=C(O)[C@H]23)cc1", "note": "(racemic) [13b]", "values": [{"measurement": "MIC", "setting": "[1]; Staphylococcus aureus, MRSA, Table S6, read-out: MIC", "result": 1, "unit": "µg/mL"}, {"measurement": "MIC", "setting": "[1]; [3]", "result": 1, "unit": "µg/mL"}, {"measurement": "MIC", "setting": "[1]; Table S5, against S. aureus", "result": 1.0, "unit": "µg/mL"}]}, {"smiles": "CCOC(=O)C1=C(O)[C@@H]2[C@@H](c3ccc(C)cc3)O[C@@H](C(C)(C)C)N2C1=O", "note": "[10b]", "values": [{"measurement": "antibacterial activity against MRSA (in words)", "setting": "[1]", "result": "no activity"}, {"measurement": "antibacterial activity against E. coli (in words)", "setting": "E. coli", "result": "no activity"}]}]}
